From BindingDB's records for doi:10.1016/j.ejmech.2016.05.049 (University of Naples Federico Ii, 2016)
Residues, ends and D or L forms follow the SMILES beside them. *: point of attachment. Cbz = O=C(OCc1ccccc1)*

Test: Competitive inhibition of post-glutamyl peptide hydrolyzing activity of human 20S proteasome using Cbz-Leu-Leu-Glu-AMC as substrate measured for 10 mins by fluorescence assay

## CC(C)CC(NC(=O)C(CO)NC(=O)OCc1ccccc1)C(=O)NC(Cc1ccc(O)cc1)C(N)=O (stereo not drawn) (Cbz-Ser-Leu-Tyr-NH2; configuration not given here)
  Ki: 8.59 µM

## COC(=O)[C@H](Cc1ccc(O)cc1)NC(=O)[C@H](CC(C)C)NC(=O)[C@H](CO)NC(=O)OCc1ccccc1 (Cbz-Ser-Leu-Tyr-OMe)
  Ki: 31.3 µM
